From patent US12595269B2, “Morpholine-like monoamine releasers” (Solvonis Therapeutics Ireland Holdings Limited, priority 2022, dated 2026)

Assays:
[1] = Plasma protein binding by equilibrium dialysis, rat plasma; assay type: in vitro ADME, Sprague Dawley (SD) rats; details: male, Sprague Dawley, pH 7.4
Experimental: (§1) Methods and Procedure: This study was performed in agreement with the previously described procedures to assure data integrity and adherence to GLP standards. Plasma protein binding and blood tissue binding of test items (0.5 μM) was determined using biological samples from male Sprague Dawley (SD) rats and humans. […] Dexamethasone was used as a control for lung tissue binding. Various biological samples were spiked with test compounds according to the methods that follow.
Preparation of plasma or blood samples: An appropriate amount of test compound was dissolved in DMSO to yield a 10 mM solution. Further dilutions, to obtain 50 μM working solutions (WS), were then prepared using 50% acetonitrile in Milli-Q water. These 100×WS were used to spike plasma or blood to obtain a final concentration of 0.5 μM. From this initial spiking solution, control samples (n=3), referred to as T=0, were immediately extracted and used to calculate the recovery of the test item.
An equilibrium dialysis method was performed to determine protein binding in the various biological samples described herein. Materials were prepared and methods were in accordance with the following procedures. […]
(§2) Dialysis buffer was prepared by dissolving Na2HPO4 8.69 g, KH2PO4 1.90 g, and NaCl 4.11 g in 1 L of MilliQ water, and adjusting the pH to 7.4 with H3PO4. […] In order to control the integrity of the membrane after the dialysis process, the presence of protein was assessed in the buffer compartment. […]
Samples were analyzed in a LC-MS/MS system using an analytical method to monitor the compound to internal standard peak area ratios as representative of the compound concentrations. Alternatively, samples were analyzed by RapidFire.
Protein binding in plasma, blood, brain, and lung tissue samples were determined with the following formula: Afu=Buffer/x, wherein “x” may be plasma, blood, brain, or lung, and “Afu” is the apparent fraction unbound, and the other variables refer to the analyte/internal standard ratio determined in their specific compartment (buffer, plasma, blood, brain homogenate, and lung homogenate); […]

[2] = Brain tissue binding (BTB) by equilibrium dialysis, rat brain homogenate; assay type: in vitro ADME; details: male, Sprague Dawley, pH 7.4
Experimental: as §1
Preparation of brain homogenate samples: Test items were dissolved in DMSO (or an appropriate solvent) to give a 10 mM solution. Further dilutions, to obtain […] working solutions (WS), were then prepared using 50% acetonitrile in Milli Q water. These 100×WS were used to spike the brain homogenate to obtain a final concentration of 5 μM. From this initial spiking solution, control samples (n=3) referred to as T=0, were immediately extracted by protein precipitation.
An equilibrium dialysis method was performed to determine protein binding in the various biological samples described herein. Materials were prepared and methods were in accordance with the following procedures.
Membranes were prepared for use in the equilibrium dialysis experiment, by soaking in deionized water for at least 60 minutes. After this period, 20% of pure ethanol was added, and the membranes were left in this solution for at least 20 minutes. The membranes were then rinsed in Milli-Q water prior to use. […]
as §2
Samples were analyzed in a LC-MS/MS system using an analytical method to monitor the compound to internal standard peak area ratios as representative of the compound concentrations. Alternatively, samples were analyzed by RapidFire. […]

**Q.** With `Clc1ccc([C@@]23CN[C@@H](CO2)C3)cc1Cl` (single isomer, unassigned) [518A] as the compound, how does the fraction unbound at 5 h, 0.5 µM [1] read?
**A.** 0.106

**Q.** What about the fraction unbound at 5 h, 5 µM [2] of the same compound?
**A.** 0.0127

**Q.** What does the source list for `Clc1ccc(C23CNC(CO2)C3)cc1Cl` (stereo not drawn) [522A, 1-(3,4-dichlorophenyl)-2-oxa-5-azabicyclo[2.2.1]heptane]?
**A.** fraction unbound at 5 h, 0.5 µM [1]: 0.12; fraction unbound at 5 h, 5 µM [2]: 0.022

**Q.** What does the source list for `CNC(C)Cc1ccc2c(c1)OCO2` (stereo not drawn) [MDMA, reference compound]?
**A.** fraction unbound at 5 h, 0.5 µM [1]: > 0.5; fraction unbound at 5 h, 5 µM [2]: ~0.4
